Measurements from patent US20070135497A1, “Biphenyl derivative or its salt, and pesticide containing it as an active ingredient” (ISHIHARA SANGYO KAISHA LTD., priority 2003, published 2007).

| SMILES | melting point |
| --- | --- |
| CNC(=O)c1cccc(-c2c(Cl)ccc(Cl)c2Cl)c1 [1-72, N-methyl-3-(2′,3′,6′-trichlorophenyl)benzamide] | 135.3 °C |
| CNC(=O)c1cccc(-c2c(Cl)cccc2Cl)c1 [1-30, N-methyl-3-(2′,6′-dichlorophenyl)benzamide] | 174.8 °C |
| CNC(=O)c1cc(-c2c(Cl)cccc2Cl)ccc1F [2-22, N-methyl-3-(2′,6′-dichlorophenyl)-6-fluorobenzamide] | 142.5 °C |
| CNC(=O)c1cccc(-c2c(Cl)ccc(Br)c2Cl)c1 [1-82, N-methyl-3-(2′,6′-dichloro-3′-bromophenyl)benzamide] | 158 °C |
| CNC(=O)c1cc(-c2c(C)cc(C)cc2C)ccc1Cl [Compound No. 2-12, N-methyl-6-chloro-3-(2′,4′,6′-trimethylphenyl)benzamide] | 130 °C |
| CNC(=O)c1cccc(-c2c(Cl)ccc(C(F)(F)F)c2Cl)c1 [1-120, N-methyl-3-(2′,6′-dichloro-3′-trifluoromethylphenyl)benzamide] | 126.1 °C |
| CNC(=O)c1cccc(-c2c(C)cc(OC)cc2C)c1 [1-65, N-methyl-3-(2′,6′-dimethyl-4′-methoxyphenyl)benzamide] | 139.6 °C |
| CNC(=O)c1cccc(-c2c(C)cc(C)cc2C)c1 [1-22, N-methyl-3-(2′,4′,6′-trimethylphenyl)benzamide] | 142.9 °C |
| Nc1cccc(-c2c(Cl)cccc2Cl)c1 [1-268, 3-(2′,6′-dichlorophenyl)aniline] | 102 °C |
| Cc1cc(Oc2ccc(C(F)(F)F)cn2)cc(C)c1-c1cccc(N)c1 [Compound No. 1-57, 4-(3′-aminophenyl)3,5-dimethylphenyl 5-trifluoromethyl-2-pyridyl ether] | 200.3 °C |
| CCNC(=O)c1cccc(-c2c(Cl)ccc(C(F)(F)F)c2Cl)c1 [1-127, N-ethyl-3-(2′,6′-dichloro-3′-trifluoromethylphenyl)benzamide] | 137 °C |
| CNC(=O)c1cccc(-c2c(C)cc(Cl)cc2C)c1 [Compound No. 1-23, N-methyl-3-(4′-chloro-2′,6′-dimethylphenyl)benzamide] | 137.1 °C |
| CNC(=O)c1cccc(-c2c(Cl)ccc(N)c2Cl)c1 [1-108, N-methyl-3-(2′,6′-dichloro-3′-aminophenyl)benzamide] | 64.1 °C |
